# “And” between values parts separate entries of the source, which are not always exact repeats. Equal entries are not always repeated. Where two headings read alike, the source gives them in different places.
# Legend:
# [1] = biological target: T1, E. coli flavohemoglobin (NOD) (Escherichia coli, UniProt P24232)
# Description: (§1) The specific activities of the E. coli, A. eutrophus and S. cerevisiae NOD were 185, 90 and 105 NO heme^−1 s^−1, respectively.
# Caco-2 cells [2] = assay: NO consumption (NO metabolism) by Caco-2 cells; conditions: for % Activity, Caco-2: agent 100 μM, 15 min incubation, 100% = 25.4±1.4 nmol NO per minute per 107 cells
# Procedure: (§2) Initial rates of NO consumption were measured at 1 μM NO unless otherwise stated, and all rates were corrected for background rates of NO decomposition. A milliunit of activity is defined as the amount metabolizing 1 nanomol NO per min. […] Rotenone (0.5 μM) was included in CO inhibition assays to block respiration and O2 depletion. […] Cell permeabilization was monitored by the loss of NO metabolic activity.
# (§3) Error bars represent the SD of three independent trials.
# (§4) In addition to cyanide and CO, heme-binding imidazoles, a panel of substrate-inhibitors of cytochrome P450s, inhibitors of the NO-binding heme oxygenases, and free radical scavengers were surveyed for effects on NO metabolism by Caco-2 and A549 cells. All agents were used at concentrations showing minimal cytotoxicity as defined by <5% decrease in trypan blue exclusion following 15 min exposure (data not shown). Caco-2 and A549 cells were grown, harvested and assayed for NO consumption activity following a 15 min incubation in 2 ml DPBS containing 5 mM glucose and 100 μg/ml cycloheximide with the indicated agent as previously described. Data represent the mean ±SD of three independent exposures.
# [3] = tested on: microsomal NO metabolism (Caco-2 microsomes); conditions: for IC50: read-out: IC50, microsomal NO metabolism
# Procedure: NO metabolism by cell fractions was assayed in 100 mM Na-Hepes, pH 7.8, 0.25 M sucrose, 1 mM EDTA and 1 mM EGTA (Sucrose Buffer) containing 15 μM Cu,ZnSOD and 100 μM NADPH. Cell fractions were added with a 50 μl Hamilton syringe to give a total of 100-750 μg protein. For determination of O2 dependence of microsomal NO metabolism, the 2 ml reaction was sparged with N2 for 10 minutes to remove O2, and O2 was depleted from microsomal membranes by stirring membranes under a stream of N2 in a rubber septum-sealed tube on ice. Alternatively, residual O2 was removed by incubating the reaction mix with 16 units glucose oxidase, 1 mM glucose and 260 units catalase for 5 minutes prior to adding NO and microsomes. O2 was added from O2 saturated buffer to achieve various O2 concentrations.
# Data represent the average of two or more two independent trials.
# NO consumption by Caco-2 microsomes was assayed as previously described.
# flavohemoglobins = assay: CO binding to ferrous hemes of flavohemoglobins; conditions: read-out: dissociation equilibrium constants, ferrous hemes of flavohemoglobins
# flavohemoglobins (NOD) = assay: CO inhibition of flavohemoglobin NOD activities; assay type: biochemical; conditions: read-out: Ki, competitive inhibition of NOD activities with respect to O2
# A549 cells = assay: NO consumption (NO metabolism) by A549 cells; assay type: cell-based, human; conditions: for Inhibition of NO metabolic activity, A549: porphyrin 100 μM; for activity at 20 µM: agent 20 μM
# Description: . The results are show in Table II.
# [4] = biological target: T2, NADPH-cytochrome P450 oxidoreductase (CYPOR) (Homo sapiens, UniProt P16435); assay: CYPOR (cytochrome c reductase) activity
# T2 sequence (P16435 1-677): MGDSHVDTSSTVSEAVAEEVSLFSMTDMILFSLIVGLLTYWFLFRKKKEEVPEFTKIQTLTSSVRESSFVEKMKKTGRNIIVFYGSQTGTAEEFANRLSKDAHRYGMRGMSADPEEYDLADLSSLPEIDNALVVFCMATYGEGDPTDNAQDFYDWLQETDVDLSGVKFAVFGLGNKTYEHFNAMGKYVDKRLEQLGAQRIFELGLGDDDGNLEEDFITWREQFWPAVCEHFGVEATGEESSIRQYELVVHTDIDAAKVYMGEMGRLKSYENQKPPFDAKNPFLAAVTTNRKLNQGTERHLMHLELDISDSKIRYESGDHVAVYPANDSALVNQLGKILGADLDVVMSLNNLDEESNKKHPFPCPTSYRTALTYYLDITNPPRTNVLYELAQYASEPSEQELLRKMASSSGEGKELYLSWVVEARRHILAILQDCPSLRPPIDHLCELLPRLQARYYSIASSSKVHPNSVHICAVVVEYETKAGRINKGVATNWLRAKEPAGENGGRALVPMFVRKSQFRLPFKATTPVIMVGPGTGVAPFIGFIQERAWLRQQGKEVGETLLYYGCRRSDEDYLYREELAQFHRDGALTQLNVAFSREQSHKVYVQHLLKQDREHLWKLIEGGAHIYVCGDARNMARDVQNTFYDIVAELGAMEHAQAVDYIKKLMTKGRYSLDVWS
# Procedure: The incubations contained 120 μl of Sucrose Buffer and 30 μl of PBS (8.1 mM Na2HPO4, 1.1 mM KH2PO4, 138 mM NaCl and 2.7 mM KCl, pH 7.4) introduced with IgG or BSA.
# Caco-2 cells [5] = tested on: Caco-2 cells
# Procedure: as §2, §3, §4
# [6] = biological target: S. cerevisiae flavohemoglobin (Saccharomyces cerevisiae, UniProt P39676); assay: biochemical
# S. cerevisiae flavohemoglobin, sequence (P39676 whole entry): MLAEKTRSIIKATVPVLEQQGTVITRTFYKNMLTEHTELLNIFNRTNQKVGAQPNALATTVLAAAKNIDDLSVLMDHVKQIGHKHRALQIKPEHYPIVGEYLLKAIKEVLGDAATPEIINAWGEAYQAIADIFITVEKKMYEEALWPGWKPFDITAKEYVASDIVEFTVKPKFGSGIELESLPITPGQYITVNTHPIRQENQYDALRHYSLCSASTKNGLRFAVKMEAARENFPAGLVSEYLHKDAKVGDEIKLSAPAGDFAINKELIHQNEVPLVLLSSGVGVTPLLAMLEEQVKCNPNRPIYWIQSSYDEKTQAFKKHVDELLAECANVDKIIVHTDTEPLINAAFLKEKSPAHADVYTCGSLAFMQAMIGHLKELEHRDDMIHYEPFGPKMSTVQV
# Description: as §1
# [7] = biological target: T3, A. eutrophus flavohemoglobin (Cupriavidus necator, UniProt P39662); assay: biochemical; conditions: Apparent Ki
# T3 sequence (P39662 whole entry): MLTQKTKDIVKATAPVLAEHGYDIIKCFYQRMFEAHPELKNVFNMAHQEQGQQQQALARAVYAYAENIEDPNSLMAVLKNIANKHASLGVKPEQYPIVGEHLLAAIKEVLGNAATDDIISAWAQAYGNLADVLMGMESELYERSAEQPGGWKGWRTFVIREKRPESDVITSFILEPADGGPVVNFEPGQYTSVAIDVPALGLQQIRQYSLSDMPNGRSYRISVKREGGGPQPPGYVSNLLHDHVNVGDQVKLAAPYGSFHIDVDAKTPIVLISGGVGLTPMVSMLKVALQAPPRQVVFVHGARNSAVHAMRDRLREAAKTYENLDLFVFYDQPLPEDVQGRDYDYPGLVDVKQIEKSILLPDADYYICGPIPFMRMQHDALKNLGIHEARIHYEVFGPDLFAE
# Description: as §1
# [8] = biological target: T1, E. coli flavohemoglobin (NOD); assay: biochemical
# Description: as §1
# [9] = biological target: T3, A. eutrophus flavohemoglobin
# Description: as §1
# S. cerevisiae = assay: NO consumption (NOD) activity within S. cerevisiae; assay type: cell-based, Saccharomyces cerevisiae; conditions: 0 μM to about 20 μM miconazole
# Description: Error bars represent the standard deviation of the average of three independent trials.
# [10] = tested on: S. cerevisiae parental strain BY4742; assay: Growth of S. cerevisiae under NO atmosphere; assay type: cell-based, Saccharomyces cerevisiae; conditions: 5 μM miconazole, 960 ppm NO, 21% O2
# Procedure: At the time indicated by the arrow, cultures were exposed to an atmosphere containing 960 ppm NO (<2 μM NO in solution) in a 21% O2/N2 balance (lines 2 and 4) or were maintained under an atmosphere of 21% O2 balanced with N2 (lines 1 and 3).
# At the time indicated by the arrow, cultures were either maintained fewer than 21% O2 balanced with N2 (lines 1 and 3) or were exposed to 960 ppm NO in the 21% O2/N2-balanced atmosphere (lines 2 and 4). Cultures were grown and exposed to gases.
# heme oxygenase = conditions: cited from earlier work
# [11] = Homo sapiens, A549, 0.25 h, 15 min incubation
# T1 sequence (P24232 whole entry): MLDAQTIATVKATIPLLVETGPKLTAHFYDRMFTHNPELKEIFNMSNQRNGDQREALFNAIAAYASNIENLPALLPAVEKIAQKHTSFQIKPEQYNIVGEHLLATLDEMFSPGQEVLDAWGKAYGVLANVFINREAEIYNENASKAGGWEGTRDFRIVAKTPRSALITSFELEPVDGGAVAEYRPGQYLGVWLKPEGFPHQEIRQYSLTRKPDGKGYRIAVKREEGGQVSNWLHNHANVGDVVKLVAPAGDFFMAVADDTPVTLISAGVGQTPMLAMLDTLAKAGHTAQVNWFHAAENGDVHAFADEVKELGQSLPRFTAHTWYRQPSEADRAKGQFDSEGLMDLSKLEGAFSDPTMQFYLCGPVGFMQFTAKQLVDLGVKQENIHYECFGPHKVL
compound,measurement,setting,value
"C=CCS[S+]([O-])CC=C (stereo not drawn) [Allicin, diallyl thiosulfinate]",Effect on isolated E. coli NOD,[1],inactivates the isolated E. coli NOD
"[C-]#[O+] [CO, carbon monoxide]","Inhibition of NO metabolism by CO, cells",Caco-2 cells [2]; CO:O2 ratio 0.4,about 75%
same,Ki,"Caco-2 cells [2]; read-out: Ki(CO), competitive inhibition of cellular NO metabolism, 5 μM CO, 12.5 μM O2, competitive with O2",~3 µM and 3 µM
same,Inhibition of microsomal NO consumption,"[3]; 10 μM CO, 20 μM O2, 1 μM NO",> 50%
same,"Inhibition of NO metabolism by CO, microsomes",[3]; CO:O2 ratio 0.75,about 75%
same,Kd,flavohemoglobins,< 0.7 µM
same,Ki,flavohemoglobins (NOD),~1 µM
"c1ccc2c(c1)[I+]c1ccccc1-2 [DPI, Diphenyleneiodonium]",Loss of microsomal NO metabolic activity,[3],Seventy-five percent
"COC(=O)[C@@H](N)CCCNC(=N)N[N+](=O)[O-] [L-NAME, N ω-nitro-L-arginine methyl ester]","% Activity, microsomal NO metabolism",[3]; inhibitor 1 mM,96.7 ± 6.0%
same,activity at 1000 µM,"A549 cells; Homo sapiens, A549, 0.25 h, agent 1 mM, 15 min incubation",101 ± 2.9%
"C=CC1=C(C)c2cc3[n-]c(cc4[n-]c(cc5nc(cc1n2)C(C)=C5C=C)c(C)c4CCC(=O)O)c(CCC(=O)O)c3C.[Zn+2] [Zn2+-protoporphyrin, Zn(II)-protoporphyrin IX]",Effect of porphyrins on microsomal NO metabolism,[3],inhibited microsomal NO metabolism
same,"Inhibition of NO metabolic activity, A549",A549 cells,about 40%
same,Effect on cytochrome c reduction by microsomal membranes and purified CYPOR,[4],progressive inhibition of cytochrome c reduction
C=CCSCC=C [diallyl sulfide],"% Activity, Caco-2",Caco-2 cells [2],98.1 ± 1.7%
Clc1ccc(COC(Cn2ccnc2)c2ccc(Cl)cc2Cl)cc1 (stereo not drawn) [econazole],"% Activity, microsomal NO metabolism",[3]; 100 µM,15.3 ± 0.0%
same,IC50,[3]; Caco-2 microsomes,10 µM
same,activity at 20 µM,A549 cells; [11],36.2 ± 4.9%
Cc1nc2c([nH]1)c(=O)n(C)c(=O)n2Cc1ccco1 [furafylline],activity at 10 µM,"A549 cells; Homo sapiens, A549, 0.25 h, agent 10 μM, 15 min incubation",98.2 ± 3.1%
CC(=O)N1CCN(c2ccc(OCC3COC(Cn4ccnc4)(c4ccc(Cl)cc4Cl)O3)cc2)CC1 (stereo not drawn) [ketoconazole],"% Activity, Caco-2",Caco-2 cells [5],22.3 ± 4.1%
same,Ki,[6],> 100 µM
same,Ki,[7]; first (major) phase,0.7 µM
same,Ki,[7]; second (minor) phase,25 µM
same,"% Activity, microsomal NO metabolism",[3]; 100 µM,25.9 ± 2.6%
same,IC50,[3],10 µM
same,Ki,[8],5 µM
same,"Fraction inhibited as percentage of total activity, first (major) phase",[9]; belongs to the first-phase Ki,(˜75%)
same,"Fraction inhibited as percentage of total activity, second (minor) phase",[9]; belongs to the second-phase Ki,(˜25%)
Clc1ccc(COC(Cn2ccnc2)c2ccc(Cl)cc2Cl)c(Cl)c1 (stereo not drawn) [miconazole],Effect on NOD activity in S. cerevisiae,S. cerevisiae,inhibition of NOD activity
same,"% Activity, microsomal NO metabolism",[3]; 100 µM,17.0 ± 0.0%
same,IC50,[3]; Caco-2 microsomes,20 µM
same,Effect on growth of S. cerevisiae together with NO,[10],synergistically inhibited growth of S. cerevisiae
same,activity at 20 µM,A549 cells; [11],38.2 ± 5.9%
"C=CC1=C(C)c2cc3[nH]c(cc4nc(cc5[nH]c(cc1n2)c(C)c5CCC(=O)O)C(CCC(=O)O)=C4C)c(C)c3C=C [protoporphyrin, Protoporphyrin IX]",Effect of porphyrins on microsomal NO metabolism,[3],"inhibited NO metabolism to a significant (p<0.05), albeit lesser, extent"
same,Effect on cytochrome c reduction by microsomal membranes and purified CYPOR,"[4]; 20 μM, data not shown",progressive inhibition of cytochrome c reduction
O=c1c(O)c(-c2ccc(O)c(O)c2)oc2cc(O)cc(O)c12 [quercetin],"% Activity, microsomal NO metabolism",[3]; inhibitor 100 μM,84.1 ± 4.4%
Nc1ccc(S(=O)(=O)Nc2ccnn2-c2ccccc2)cc1 [sulfaphenazole],"% Activity, Caco-2",Caco-2 cells [2],97.1 ± 3.0%
Cc1c(C)c2c(c(C)c1O)CC[C@@](C)(CCC[C@H](C)CCC[C@H](C)CCCC(C)C)O2 [α-tocopherol],"% Activity, microsomal NO metabolism",[3]; inhibitor 100 μM,106.9 ± 3.4%
Sn(IV)-protoporphyrin IX [Sn4+-protoporphyrin],Ki,heme oxygenase,< 0.1 µM
same,"Inhibition of NO metabolic activity, A549",A549 cells,no effect
